In patent US20240294499A1, “TARGETED PROTEIN DEGRADATION USING BIFUNCTIONAL COMPOUNDS THAT BIND UBIQUITIN LIGASE AND TARGET MCL-1 PROTEIN” (Captor Therapeutics S.A., priority 2021, published 2024):

What was measured:
Type in all cases: cell-based
MV-4-11 cells = assay: Cell viability assay (CellTiter-Glo), MV-4-11; settings: Homo sapiens, MV4-11, 24 hours incubation, 1% FBS, read-out: Average pIC50 by molecule MV-4-11 (converted)
Method in brief: (§1)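 Luminescent ATP readout (CellTiter-Glo) at 24 hours measured viability, expressed relative to DMSO-treated wells. Compound was added directly to the medium as a 9–12-point threefold series starting at 30 uM, at 0.5% final DMSO. The medium contained FBS reduced to 1%.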

MCL-1 protein [1] = target: T1, MCL-1 protein (Homo sapiens, UniProt Q07820); assay: DMS 114 cells: MCL-1 protein degradation, Western blot; parameters: endogenous in cells; settings: DMS 114 cell line, 6 h treatment, 1 μM compound, vs DMSO
Description: The effect of various compounds of the invention on MCL-1 protein degradation in the DMS 114 cell line was investigated, using the degradation assay protocol below.
DMS 114 cells were maintained in Waymouth's MB 752/1 medium, supplemented with penicillin/streptomycin and 10% Fetal Bovine Serum (FBS).
Compound stocks were pre-diluted in DMSO and added directly to the cells growth medium (final DMSO concentration: 0.5%).
DMS 114 cells were detached, collected, centrifuged (250 rcf, 5 min), resuspended in growth medium containing 10% FBS and counted. Cell suspension was then adjusted to 0.25×10^6 cell/ml using growth medium containing 10% FBS. Afterwards, 0.5×10^6 cells were seeded on 6-well plates in 2 mL of medium per well. Plates were then place in the incubator at 37° C. until treatment. Next day, compounds in appropriate concentrations were added to the wells and the plates incubated for additional 6 or 24 hours. DMSO was used as control (final concentration 0.5%).
Following the treatment with the compounds, cells were washed on the plates, lysed with the lysis buffer (2% SDS, 50 mM Tris, pH 8.0, 100 U/ml Pierce Universal Nuclease for Cell Lysis, complete EDTA-free Protease Inhibitor Cocktail) and incubated on ice for 45 min. The amount of protein was determined via BCA assay, and the equal quantity of each sample was loaded on the precast gel for the protein separation. Following the electrophoresis and transfer to the membrane, the membrane was stained with Ponceau (0.1% (w/v) Ponceau in 5% acetic acid). After total protein detection, the stain was washed out using TBST. After the antibody staining for MCL-1, PARP, cleaved Caspase 3 and α-tubulin, the membranes were washed and signals developed.
Densitometric values for MCL-1 were normalized to total protein level (the Ponceau Staining). [%] of protein reduction is calculated in comparison to the cells treated with DMSO, which stand for 0%.
The results for the 6 h treatment with 1 μM compounds are shown in Table 10, using the following labels: • <50% for 0-49% of MCL-1 protein reduction, • ≥50% for 50-74% of MCL-1 protein reduction, • ≥75% for 75-100% of MCL-1 protein reduction.

MCL-1 protein [2] = target: T1, MCL-1 protein; assay: Dose-dependent MCL-1 protein degradation and induction of apoptosis in cancer cells, Western blot; parameters: endogenous in cells; host or cells: OPM-2, MV-4-11, DMS 114; settings: for degradation of MCL-1 protein and apoptosis of OPM2 cells compared to dMCL1-2 and C3: FIG. 2 and FIG. 3
Description: The experiments were performed as described for the “OPM-2 cells: MCL-1 protein degradation, Western blot” and “DMS 114 cells: MCL-1 protein degradation, Western blot”.
In addition to MCL-1 and α-Tubulin, PARP and cleaved caspase-3 were detected to monitor apoptosis.
FIG. 2 presents the results of MCL-1 protein degradation and induction of apoptosis for the OPM-2 cells treated with 204 or 215 at 0.01, 0.1 or 1 μM concentration for 6 hours or 24 hours, as indicated.
FIG. 3A presents the results of MCL-1 protein degradation and induction of apoptosis for the OPM-2 cells treated with 204 and control compounds dMCL1-2 (Papatzimas et al., J. Med. Chem. 2019, 62, 11, 5522-5540) at 0.01, 0.03, 0.1, 0.3 or 1 μM concentration for 3 hours, 6 hours or 24 hours, as indicated.
FIG. 3B presents the results of MCL-1 protein degradation and induction of apoptosis for the MV-4-11 cells treated with 204 and control compounds C3 (Wang Z et al., J. Med. Chem. 2019, 62, 17, 8152-8163) at 0.1, 1 or 10 μM concentration for 24 hours, as indicated.
FIG. 3C presents the results of MCL-1 protein degradation and induction of apoptosis for the OPM-2 cells treated with 220, 268, 346 and control compounds dMCL1-2 at 0.03, 0.1, 0.3, 1 μM concentration for 6 hours, as indicated.
FIG. 3D presents the results of MCL-1 protein degradation and induction of apoptosis for the OPM-2 cells treated with 220, 342 at 0.1, 1, 10 μM concentration for 6 hours, as indicated.
FIG. 3E presents the results of MCL-1 protein degradation and induction of apoptosis for the DMS 114 cells treated with 204, 220, 268, 346 at 0.1, 1, 10 μM concentration for 6 hours, as indicated.

ARH-77 cells = assay: Cell viability assay (CellTiter-Glo), ARH-77; settings: Homo sapiens, ARH-77, 24 hours incubation, 1% FBS, read-out: Average pIC50 by molecule ARH-77 (converted)
Method in brief: as §1

T1 sequence (Q07820 whole entry): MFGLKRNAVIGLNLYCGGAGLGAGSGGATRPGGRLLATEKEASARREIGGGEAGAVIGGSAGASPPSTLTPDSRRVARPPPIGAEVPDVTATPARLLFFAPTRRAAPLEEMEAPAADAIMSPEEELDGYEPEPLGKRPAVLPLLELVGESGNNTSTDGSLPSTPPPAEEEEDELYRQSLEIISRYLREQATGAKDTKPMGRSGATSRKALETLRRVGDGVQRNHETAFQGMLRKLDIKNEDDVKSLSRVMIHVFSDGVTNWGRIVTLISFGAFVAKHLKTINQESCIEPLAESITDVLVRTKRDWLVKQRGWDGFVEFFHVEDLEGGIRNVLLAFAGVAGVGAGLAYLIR

SMILES	IC50 (MV-4-11 cells) [µM]	Western blot, % of protein reduction (MCL-1 protein [1]) [%]	degradation of MCL-1 protein and apoptosis of OPM2 cells compared to dMCL1-2 and C3 (MCL-1 protein [2])	MCL-1 protein degradation and induction of apoptosis compared with control compounds (MCL-1 protein [2]; OPM-2 cells vs dMCL1-2, MV-4-11 cells vs C3 (FIG. 3A, 3B))	IC50 (ARH-77 cells) [µM]
Cc1nn(C)c(C)c1-c1c(Cl)ccc2c(CCCOc3cccc4ccccc34)c(C(=O)O)n(CCN3CCN(C(=O)COc4cccc5c4C(=O)N(C4CCC(=O)NC4=O)C5=O)CC3)c12 (stereo not shown) [Compound 204, 6-chloro-1-(2-(4-(2-((2-(2,6-dioxopiperidin-3-yl)-1,3-dioxoisoindolin-4-yl)oxy)acetyl)piperazin-1-yl)ethyl)-3-(3-(naphthalen-1-yloxy)propyl)-7-(1,3,5-trimethyl-1H-pyrazol-4-yl)-1H-indole-2-carboxylic acid]	≤ 0.1	≥50	improved potency	more potent	
Cc1nn(C)c(C)c1-c1c(F)ccc2c(CCCOc3cccc4cc(F)ccc34)c(C(=O)O)n(CCN3CCN(C(=O)COc4cccc5c4C(=O)N(C4CCC(=O)NC4=O)C5=O)CC3)c12 (stereo not shown) [Compound 215, 1-{2-[4-(2-{[2-(2,6-dioxopiperidin-3-yl)-1,3-dioxo-2,3-dihydro-1H-isoindol-4-yl]oxy}acetyl)piperazin-1-yl]ethyl}-6-fluoro-3-{3-[(6-fluoronaphthalen-1-yl)oxy]propyl}-7-(1,3,5-trimethyl-1H-pyrazol-4-yl)-1H-indole-2-carboxylic acid]	≤ 0.1		improved potency		
Cc1nn(C)c(C)c1-c1c(Cl)ccc2c(CCCOc3cccc4cc(F)ccc34)c(C(=O)O)n(CCN3CCN(C(=O)COc4cccc5c4CN(C4CCC(=O)NC4=O)C5=O)CC3)c12 (stereo not shown) [Compound 220, 6-chloro-1-{2-[4-(2-{[2-(2,6-dioxopiperidin-3-yl)-1-oxo-2,3-dihydro-1H-isoindol-4-yl]oxy}acetyl)piperazin-1-yl]ethyl}-3-{3-[(6-fluoronaphthalen-1-yl)oxy]propyl}-7-(1,3,5-trimethyl-1H-pyrazol-4-yl)-1H-indole-2-carboxylic acid]	≤ 0.0316	≥75	improved potency		> 10

Second part, led by results:

IC50 (MV-4-11 cells) [µM]	Western blot, % of protein reduction (MCL-1 protein [1]) [%]	degradation of MCL-1 protein and apoptosis of OPM2 cells compared to dMCL1-2 and C3 (MCL-1 protein [2])	MCL-1 protein degradation and induction of apoptosis compared with control compounds (MCL-1 protein [2]; OPM-2 cells vs dMCL1-2, MV-4-11 cells vs C3 (FIG. 3A, 3B))	SMILES	IC50 (ARH-77 cells) [µM]
	≥75	improved potency		Cc1nn(C)c(C)c1-c1c(Cl)ccc2c(CCCOc3cccc4cc(F)ccc34)c(C(=O)O)n(CCN3CCN(C(=O)Cn4c(C)nc5c(C(=O)NC6CCC(=O)NC6=O)cccc54)CC3)c12 (stereo not shown) [Compound 268, 6-chloro-1-{2-[4-(2-{4-[(2,6-dioxopiperidin-3-yl)carbamoyl]-2-methyl-1H-1,3-benzodiazol-1-yl}acetyl)piperazin-1-yl]ethyl}-3-{3-[(6-fluoronaphthalen-1-yl)oxy]propyl}-7-(1,3,5-trimethyl-1H-pyrazol-4-yl)-1H-indole-2-carboxylic acid]	
≤ 0.1	≥75	improved potency		Cc1nn2c(c1-c1c(Cl)ccc3c(CCCOc4cccc5cc(F)ccc45)c(C(=O)O)n(CCN4CCN(C(=O)COc5cccc6c5CN(C5CCC(=O)NC5=O)C6=O)CC4)c13)COCC2 (stereo not shown) [Compound 346, 6-Chloro-1-(2-(4-(2-((2-(2,6-dioxopiperidin-3-yl)-1-oxoisoindolin-4-yl)oxy)acetyl)piperazin-1-yl)ethyl)-3-(3-((6-fluoronaphthalen-1-yl)oxy)propyl)-7-(2-methyl-6,7-dihydro-4H-pyrazolo[5,1-c][1,4]oxazin-3-yl)-1H-indole-2-carboxylic acid]	> 10
